The values that follow come from patent US6620828B2, “Thiazole compounds and pharmaceutical compositions for inhibiting protein kinases and methods for their use” (Agouron Pharmaceuticals, Inc., priority 1999, dated 2003).

By IC50 is commonly meant the concentration needed to halve the response being measured. A higher IC50 goes with a need for much substance. In general, Ki refers to the equilibrium dissociation constant of an inhibitor or competing ligand from its target. A lower Ki goes with a stronger hold on the target.

Assay [1] relates to human umbilical vein endothelial cells (HUVEC). Description: HUVEC proliferation assay. As to conditions: Homo sapiens, HUVEC, Table 3. In kind it is cell-based. Put shortly: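 Exponentially growing HUVEC were serum-starved 24 h (F12K + 1% FBS), pre-treated 1 h with compound (0.1% DMSO final), then stimulated with 6 ng/ml VEGF. Proliferation was read 72 h later by MTT reduction (A595). IC50 came from seven 0.5-log concentrations in triplicate; screens gave % inhibition relative to VEGF-only and starved wells.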

The target in another assay is T1, LCK tyrosine kinase (Homo sapiens, UniProt P06239, C224D/P223M).
T1 construct: starting from amino acid residue 223 to the end of the protein at residue 509; made in house; host or cells: insect cells
The assay can be described thus: LCK spectrophotometric assay. In kind it is biochemical. As to conditions: Table 3, read-out: LCK (% inh @ 1 uM).

Assay [2] deals with T2, unphosphorylated VEGF-R2Δ50 (FLVK) (Homo sapiens, UniProt P35968, DEL940-989/E990V).
T2 construct: VEGF-R2Δ50 contains residues 806-939 and 990-1171; made in house; host or cells: baculovirus/insect cells
Description: VEGF-R2 coupled spectrophotometric assay, unphosphorylated enzyme (FLVK). In kind it is biochemical. To be noted: Table 3; some entries 'Slow binder'. Put shortly:
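Unphosphorylated VEGF-R2Δ50 (5 to 40 nM) with 20 mM poly(E4Y1), 3 mM ATP, 60 mM MgCl2, 2 mM MnCl2 in 200 mM Hepes pH 7.5. ADP production coupled via PK/LDH to NADH oxidation, read at 340 nm. Ki from activity at varying compound concentrations.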

Another assay deals with T3, FGF-R1 (Homo sapiens, UniProt P11362, C488A/C584S/L457V).
T3 construct: starting from the endogenous methionine residue 456 to glutamate 766; made in house; host or cells: baculovirus vector expression system
Description: FGF-R spectrophotometric assay. In kind it is biochemical. As to conditions: Table 3; % inh @ 1 uM; read-out: FGF-P Ki (nM) (% inh @ 1 uM). The procedure: FGF-R1 Construct for Assay: The intracellular kinase domain of human FGF-R1 was expressed using the baculovirus vector expression system starting from the endogenous methionine residue 456 to glutamate 766, according to the residue numbering system of Mohammadi et al., Mol. Cell. Biol., 16, 977-989 (1996). In addition, the construct also has the following 3 amino acid substitutions: L457V, C488A, and C584S.
The spectrophotometric assay was carried out as described above for VEGF-R2, except for the following changes in concentration: FGF-R=50 nM, ATP=2 mM, and poly(E4Y1)=15 mM.

The test system of assay [3] is lung cancer cells (line MV522). Description: Cancer cell proliferation (MV522) assay. To be noted: MV522, Table 3. In kind it is cell-based.
The target in assay [4] is T4, phosphorylated VEGF-R2Δ50 (FLVK-P) (Homo sapiens, UniProt P35968, DEL940-989/E990V).
T4 construct: VEGF-R2Δ50 contains residues 806-939 and 990-1171; made in house; host or cells: baculovirus/insect cells
The assay can be described thus: VEGF-R2 coupled spectrophotometric (FLVK-P) assay. To be noted: Table 3; at 50 nM. In kind it is biochemical. Put shortly: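 Baculovirus-expressed human VEGF-R2Δ50 (residues 806-939/990-1171, E990V) was autophosphorylated with 3 mM ATP, 40 mM MgCl2 for 2 h at 4° C. ADP formation was coupled via PK/LDH to NADH oxidation, read at 340 nm, with 5.1 mM poly(E4Y1), 1 mM ATP, 25 mM MgCl2, Hepes pH 7.5. Ki came from activity across compound concentrations.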

T2 sequence (P35968 with tags, fused parts or gaps DEL940-989/E990V limits assumed): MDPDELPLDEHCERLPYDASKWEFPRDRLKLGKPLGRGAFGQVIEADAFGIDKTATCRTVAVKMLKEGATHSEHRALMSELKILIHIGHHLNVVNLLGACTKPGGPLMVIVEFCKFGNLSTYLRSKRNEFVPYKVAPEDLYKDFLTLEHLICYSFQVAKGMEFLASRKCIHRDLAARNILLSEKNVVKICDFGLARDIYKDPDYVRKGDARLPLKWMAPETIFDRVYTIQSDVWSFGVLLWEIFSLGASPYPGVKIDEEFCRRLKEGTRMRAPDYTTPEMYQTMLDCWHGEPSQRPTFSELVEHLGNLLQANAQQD
T3 sequence (P11362 456-766 L457V/C488A/C584S): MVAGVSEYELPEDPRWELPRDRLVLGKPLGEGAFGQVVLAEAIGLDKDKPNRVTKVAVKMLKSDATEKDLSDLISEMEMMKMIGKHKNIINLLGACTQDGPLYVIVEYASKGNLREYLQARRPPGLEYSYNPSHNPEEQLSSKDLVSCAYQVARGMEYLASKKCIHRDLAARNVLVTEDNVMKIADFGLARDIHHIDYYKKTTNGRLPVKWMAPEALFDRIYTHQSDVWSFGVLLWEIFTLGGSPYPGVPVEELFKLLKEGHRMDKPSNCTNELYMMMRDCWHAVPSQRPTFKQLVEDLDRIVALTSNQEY
T1 sequence (P06239 223-509 P223M/C224D): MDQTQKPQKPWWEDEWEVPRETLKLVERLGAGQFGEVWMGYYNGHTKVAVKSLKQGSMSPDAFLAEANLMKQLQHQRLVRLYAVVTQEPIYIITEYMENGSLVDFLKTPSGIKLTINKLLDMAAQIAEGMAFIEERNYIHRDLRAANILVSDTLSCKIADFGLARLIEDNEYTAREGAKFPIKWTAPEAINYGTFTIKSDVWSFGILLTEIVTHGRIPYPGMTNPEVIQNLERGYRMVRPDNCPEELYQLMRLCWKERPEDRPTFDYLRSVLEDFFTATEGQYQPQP
T4 sequence (P35968 with tags, fused parts or gaps DEL940-989/E990V limits assumed): as the sequence (P35968 with tags, fused parts or gaps DEL940-989/E990V limits assumed) above

On to `COc1cc(Nc2nc(N)c(-c3nc(-c4cc(NC(=O)c5cccc(Cl)c5)c(F)cc4Cl)no3)s2)cc(OC)c1OC` [D(69), N-(5-{5-[4-Amino-2-(3,4,5-trimethoxy-phenylamino)-thiazol-5-yl]-[1,2,4]oxadiazol-3-yl}-4-chloro-2-fluoro-phenyl)-3-chloro-benzamide], for which the IC50 was found to be 15 nM in assay [1] and 2300 nM in assay [3]. Also, the results for the inhibition at 1 µM on LCK tyrosine kinase and at FGF-R1 were 79% and 78%, respectively. This compound had a Ki in assay [2] of 0.5 nM.
As for `COc1cc(Nc2nc(N)c(-c3nc(-c4cc(NC(=O)c5cccc(Cl)c5)c(F)cc4F)no3)s2)cc(OC)c1OC` [D(66), N-(5-{5-[4-Amino-2-(3,4,5-trimethoxy-phenylamino)-thiazol-5-yl]-[1,2,4]oxadiazol-3-yl}-2,4-difluoro-phenyl)-3-chloro-benzamide], the IC50 in assay [1] was 4.2 nM; in assay [3], more than 10000 nM. The values for the inhibition at 1 µM on LCK tyrosine kinase and at FGF-R1 were 15% and 55%, respectively. In assay [2], this compound returned a Ki of 1 nM.
On to `COc1cc(Nc2nc(N)c(-c3nc(-c4cccc(NC(=O)c5ncoc5-c5ccccc5)c4)cs3)s2)cc(OC)c1OC` [D(61), 5-Phenyl-oxazole-4-carboxylic acid {3-[4′-amino-2′-(3,4,5-trimethoxy-phenylamino)-[2,5′]bithiazolyl-4-yl]-phenyl}-amide], for which the IC50 in assay [1] is 165 nM; in assay [3], more than 10000 nM. Further, the inhibition at 1 µM amounted to 4% at LCK tyrosine kinase and 9% at FGF-R1.
On to `COc1cccc(C(=O)Nc2ccc(C)c(-c3noc(-c4sc(Nc5ccc(N6CCOCC6)nc5)nc4N)n3)c2)c1` [B(36), 3-[3-[(3-methoxybenzoyl)amino]-6-methyl-phenyl]-5-[2-[3-amino-6-(4-morpholinyl)-pyridinyl]-4-amino-5-thiazolyl]-1,2,4-oxadiazole], for which the inhibition at 1 µM amounted to 72% at LCK tyrosine kinase and 23% at FGF-R1. Also, in assay [2], affinity was put at a Ki of 0.56 nM.
Regarding `Cc1cccc(C(=O)Nc2cccc(-c3noc(-c4sc(NC(=O)NC(C)C)nc4N)n3)c2)c1` [F(13), N-(3-{5-[4-Amino-2-(3-isopropyl-ureido)-thiazol-5-yl]-[1,2,4]oxadiazol-3-yl}-phenyl)-3-methyl-benzamide], in assay [1], 16 nM corresponded to half-maximal inhibition (IC50). Moreover, the inhibition at 1 µM at LCK tyrosine kinase amounted to 29%; at FGF-R1, 25%. This compound also came in with a Ki in assay [2] of 0.25 nM.
Take `COc1cc(Nc2nc(N)c(-c3nc(-c4cccc(NC(=O)c5cc(C)c(O)c(C)c5)c4)cs3)s2)cc(OC)c1OC` [D(58), N-{3-[4′-Amino-2′-(3,4,5-trimethoxy-phenylamino)-[2,5′]bithiazolyl-4-yl]-phenyl}-4-hydroxy-3,5-dimethyl-benzamide]: the IC50 was more than 100 nM in assay [1] and more than 10000 nM in assay [3]. The figures for the inhibition at 1 µM at LCK tyrosine kinase and at FGF-R1 were 29% and 23%, respectively. For the same compound, the Ki in assay [2] came out at 1.4 nM.
Taken in the same sequence, the figures for `COc1cc(Nc2nc(N)c(-c3nc(-c4cc(NC(=O)c5cccc(Cl)c5)ccc4F)no3)s2)cc(OC)c1OC` [D(73)] were 6 nM, 4450 nM, 41%, 56% and 1.2 nM.
On to `COc1cc(Nc2nc(N)c(-c3nc(-c4cc(NC(=O)OC(C)(C)C)ccc4Cl)no3)s2)cc(OC)c1OC` [B(12), (3-{5-[4-Amino-2-(3,4,5-trimethoxy-phenylamino)-thiazol-5-yl]-[1,2,4]oxadiazoyl}-4-chloro-phenyl)-carbamic acid tert-butyl ester], for which the IC50 in assay [1] was determined as 15 nM; in assay [3], 3600 nM. Also, the inhibition at 1 µM came to 29% on LCK tyrosine kinase and 52% at FGF-R1. The compound also gave a Ki in assay [2] of 1.6 nM.
On to `COc1cccc(C(=O)Nc2cc(-c3noc(-c4sc(Nc5cc(OC)c(OC)c(OC)c5)nc4N)n3)c(F)cc2F)c1` [D(67), N-(5-{5-[4-Amino-2-(3,4,5-trimethoxy-pheny-1-amino)-thiazol-5-yl]-[1,2,4]oxadiazol-3-yl}-2,4-difluoro-phenyl)-3-methoxy-benzamide], for which the figures for the IC50 in assay [1] and in assay [3] were 4.1 nM and more than 10000 nM, respectively. The inhibition at 1 µM is 1% at LCK tyrosine kinase and 13% on FGF-R1.
As for `Cc1cccc(C(=O)Nc2cccc(-c3noc(-c4sc(NC(=O)NCCCN5CCOCC5)nc4N)n3)c2)c1` [O(12), N-[3-(5-{4-Amino-2-[3-(3-morpholin-4-yl-propyl)-ureido]-thiazol-5-yl}-[1,2,4]oxadiazol-3-yl)-phenyl]-3-methyl-benzamide], the IC50 in assay [1] amounted to 45 nM; in assay [3], 44000 nM. For the same compound, the inhibition at 1 µM was determined as 21% on LCK tyrosine kinase and 33% on FGF-R1. In assay [2], this compound showed a Ki of 0.19 nM.
The corresponding values for `COc1cc(Nc2nc(N)c(-c3nc(-c4cccc(NC(=O)CC5CC6CCC5C6)c4)cs3)s2)cc(OC)c1OC` (stereo not shown) [D(59), N-{3-[4′-Amino-2′-(3,4,5-trimethoxy-phenylamino)-[2,5′]bithiazolyl-4-yl]-phenyl}-2-bicyclo[2.2.1]hept-2-yl-acetamide] are more than 100 nM, 3100 nM, 44%, 54% and 2.8 nM.
As to `CNC(=O)Nc1nc(N)c(-c2nc(-c3cccc(NC(=O)c4cccc(Cl)c4)c3)cs2)s1` [F(10), N-{3-[4′-Amino-2′-(3-methyl-ureido)-[2,5′]bithiazolyl-4-yl]-phenyl}-3-chloro-benzamide], the IC50 in assay [1] was 8.5 nM. For the same compound, the results for the inhibition at 1 µM at LCK tyrosine kinase and on FGF-R1 were 42% and 47%, respectively. Also, the Ki in assay [2] amounted to 0.14 nM.
In the case of `COc1cccc(C(=O)Nc2cc(-c3noc(-c4sc(Nc5ccc(N6CCOCC6)nc5)nc4N)n3)c(F)cc2F)c1` [B(18), N-(5-{5-[4-Amino-2-(6-morpholin-4-yl-pyridin-3-ylamino)-thiazol-5-yl]-[1,2,4]oxadiazol-3-yl}-2,4-difluoro-phenyl)-3-methoxy-benzamide], the IC50 in assay [1] is 10 nM; in assay [3], 1900 nM. The inhibition at 1 µM is less than 0% at LCK tyrosine kinase and 8% on FGF-R1. This compound also returned a Ki in assay [2] of 0.9 nM.
Consider `COc1cccc(C(=O)Nc2cc(-c3csc(-c4sc(NC(=O)NCCCN5CCCC5=O)nc4N)n3)c(F)cc2F)c1` [O(15), N-[5-(4′-Amino-2′-{3-[3-(2-oxo-pyrolidin-1-yl)-propyl]-ureido}-[2,5′]bithiazolyl-4-yl)-2,4-difluoro-phenyl]-3-methoxy-benzamide], for which the inhibition at 1 µM turned out to be 2% on LCK tyrosine kinase and 28% at FGF-R1. Moreover, affinity in assay [2] was put at a Ki of 0.5 nM.
`CNC(=O)Nc1nc(N)c(-c2nc(-c3cccc(NC(=O)c4cccc(OC)c4)c3)cs2)s1` [F(11), N-{3-[4′-Amino-2′-(3-methyl-ureido)-[2,5′]bithiazolyl-4-yl]-phenyl}-3-methoxy-benzamide]: the IC50 stood at 12 nM in assay [1] and 9600 nM in assay [3]. Further, the values for the inhibition at 1 µM on LCK tyrosine kinase and at FGF-R1 were 15% and 25%, respectively. Also, in assay [2], the Ki was 0.26 nM.
`CCn1nc(C)cc1C(=O)Nc1ccc(C)c(-c2noc(-c3sc(Nc4cccc(CN5CCCC5)c4)nc3N)n2)c1` [B(9)]: the inhibition at 1 µM on LCK tyrosine kinase came to 91%; at FGF-R1, 78%. Further, in assay [2], the Ki was 0.36 nM.
Consider `CNC(=O)Nc1nc(N)c(-c2nc(-c3cc(NC(=O)c4cccc(OC)c4)c(F)cc3F)no2)s1` [O(4), N-(5-{5-[4-Amino-2-(3-methyl-ureido)-thiazol-5-yl]-[1,2,4]oxadiazol-3-yl}-2,4-difluoro-phenyl)-3-methoxy-benzamide], for which half-maximal inhibition in assay [1] (IC50) was put at 0.64 nM. The inhibition at 1 µM on LCK tyrosine kinase was found to be 3%; on FGF-R1 it was 9%. In assay [2], the affinity, expressed as Ki, was 0.19 nM. The inhibition at 0.05 µM in assay [4] turned out to be 87%.
Turning to `COc1cc(Nc2nc(N)c(-c3nc(-c4cccc(NC(=O)c5cnc6ccccc6c5)c4)cs3)s2)cc(OC)c1OC` [D(60), Quinoline-3-carboxylic acid {3-[4′-amino-2′-(3,4,5-trimethoxy-phenylamino)-[2,5′]bithiazolyl-4-yl]-phenyl}-amide], the IC50 in assay [1] is more than 100 nM. The inhibition at 1 µM at LCK tyrosine kinase was found to be 11%; on FGF-R1 it was 10%. For the same compound, the affinity in assay [2], expressed as Ki, was 1.4 nM.
